One series relates to Candida albicans. Kind of series: Antimicrobial testing, agar dilution method. It is filed as cell-based. As to conditions: after 10, 20, 40 and 60 min at all dilutions 1:100, 1:200, 1:400, 1:800. On the procedure: (§1) The antimicrobial properties of the, 5-bis(4-methoxyphenyl)-1-hexyl-2-phenyl-1H-imidazole was studied by the method of agar dilution. Test solutions of each compound was prepared in concentration of 1% using dimethylformamide as a solvent then they are diluted in physiological solution to obtain the final experimental dilutions 1:100, 1:200, 1:400, 1:800. The effect of these substances are compared with furacillin in a controllable study. The testing microbes used were gram positive bacteria St. aureus, gram negative bacteria E. Coli, Ps. aeruginosa and Candida albicans fungi were taken. The experiments used for this survey were meat-pentonlu agar (EPA) for cultivation of bacteria and Saburo environment for fungi. Each experiment used 1 ml of test solution on each plate 500 min. Add 2 drops of emulsified with microbes feel. All experimental samples were taken from the agar after 10, 20, 40, 60 minutes in the environment on the basis of Patrk planted. Bacteria were cultivated at a temperature of 37° C. for 1 day and the mushroom was kept in a thermostat for […] at a temperature of 28° C. Then the results were checked.

A further series concerns E. Coli. Kind of series: Antimicrobial testing, agar dilution method. As to conditions: after 10, 20, 40 and 60 min at all dilutions 1:100, 1:200, 1:400, 1:800. It is filed as cell-based, Escherichia coli. The protocol:
as §1

A further series concerns St. aureus. Kind of series: Antimicrobial testing, agar dilution method. In kind it is cell-based, Staphylococcus aureus. As to conditions: after 10, 20, 40 and 60 min at all dilutions 1:100, 1:200, 1:400, 1:800. On the procedure:
as §1

The test system of a further series is Ps. aeruginosa. Nature of the series: Antimicrobial testing, agar dilution method. In kind it is cell-based, Pseudomonas aeruginosa. The note with it: after 10, 20, 40 and 60 min at all dilutions 1:100, 1:200, 1:400, 1:800. On the procedure: as §1

Each structure is given as a SMILES string.

`CCCCCCn1c(-c2ccccc2)nc(-c2ccc(OC)cc2)c1-c1ccc(OC)cc1` [4,5-bis(4-methoxyphenyl)-1-hexyl-2-phenyl-1H-imidazole] displayed a melting point of 177 to 179 °C. In the series with Candida albicans, the “inhibition activity (in words)” value is given as “higher inhibition activity”. In the series with E. Coli, the “inhibition activity (in words)” value is “higher inhibition activity”. Besides, the “inhibition activity (in words)” value with St. aureus was “higher inhibition activity”. Also, the “inhibition activity (in words)” value in the series with Ps. aeruginosa is listed as “higher inhibition activity”.

These data come from patent US12012385B1, “4,5-bis(4-methoxyphenyl)-1-hexyl-2-phenyl-1H-imidazole as an antimicrobial compound” (KING FAISAL UNIVERSITY, priority 2023, dated 2024).
